Measured values: patent publication US10118943B2, “Compounds and methods for inhibiting cell death” (Ramot at Tel-Aviv University Ltd., priority 2012, dated 2018)
Entries after “also recorded” stand apart in the source; their conditions may differ. Like-named read-outs stand apart in the source and are kept apart here. Ends that are not written are not given here.

Assays:
[1] = system: PC12 cells; conditions: ZnCl2 400 μM, 4 h
Protocol: FIG. 15: Rat pheochromocytoma cells (PC12) were seeded on Poly-D-Lysine coated 96-well tissue culture dishes in high concentration (30,000 cells/well). On the day of the experiment the cells were treated with ZnCl2 (400 μM) either alone or in combination with different concentration of SKIP for 4 h. After 4 h the cell viability was analyzed by MTS assay. […] All values are from one experiment performed in hexplicate.
Rat pheochromocytoma cell (PC12, ATCC, Bethesda, Md., USA) were grown in 10-cm tissue culture dishes (Corning). The base medium for this cell line was RPMI-1640 Medium (Invitrogen) supplemented with 10% heat-inactivated horse serum, 5% fetal bovine serum and solution containing 100 U/ml penicillin together with […] streptomycin (Biological Industries, Beit Haemek, Israel). The cells were incubated in 95% air; 5% CO2 in a humidified incubator at 37° C. The medium was changed every 2 to 3 days. The cells were subcultured when cell density reached 4×10^6 cells/ml. The cells were split in a ratio of 1:4.
On the day before the experiment cells were to be harvested, re-suspended and seeded on tissue culture dishes. For cell viability measurements, cells were seeded on Poly-D-Lysine coated 96-well tissue culture dishes (Sigma-Aldrich) at a concentration of 3×10^4 cells/well.
The cell viability is measured by colorimetric method that determines the number of viable cells in culture. This method is based on the bio-reduction of the tetrazolium compound [3-(4,5-dimethylthiazol-2-yl)-5-(3-carboxymethoxyphenyl)-2-(4-sulfophenyl)-2H-tetrazolium; MTS] by living cells into a colored formazan product. This reaction is occurring in the presence of an electron coupling reagent (phenazine ethosulfate; PES). The amount of formazan product is measured by ELISA plate reader at 490 nm and is directly proportional to the number of living cells in culture (CellTiter 96® AQueous One Solution Cell Proliferation Assay; Promega, Madison, Wis., USA).

[2] = system: ADNP+/− mice; experiment: Object recognition test in ADNP-deficient mice; format: in vivo, mouse; conditions: intranasal, twice a day, 1 month, ADNP+/− male mice
Source text: (§1) All procedures involving animals were approved by the Animal Care and Use Committee of Tel Aviv University and the National Institutes of Health (Bethesda, Md.). ADNP heterozygous mice, a model for cognitive impairments (Vulih-Shultzman et al., 2007, J. Pharmacol. Exp. Ther. 323:438-449), were housed in a 12-h light/12-h dark cycle facility, and free access to rodent chow and water was available.
(§2) SKIP (SEQ ID NO:6) treatment included daily intranasal administrations over a 1 month period to 5-month-old male mice (2 μg/5 μl/mouse/day). For intranasal administration, the peptide was dissolved in a vehicle solution, in which each milliliter included 7.5 mg of NaCl, 1.7 mg of citric acid monohydrate, 3 mg of disodium phosphate dihydrate, and 0.2 mg of benzalkonium chloride solution (50%). SKIP (SEQ ID NO:6) or vehicle solution (DD) was administered to mice hand-held in a semisupine position with nostrils facing the investigator. A pipette tip was used to administer 5 μl/each nostril. The mouse was handheld until the solution was totally absorbed (˜10 s). Nasal SKIP (SEQ ID NO:6) application was performed daily, twice a day, for 1 month (5 days a week). After 1 month, SKIP (SEQ ID NO:6) was applied 2 h before the behavioral tests (described below).
The test includes 2 consecutive days of habituation (five minutes per day) and the experimental day which consists of the three phases. The test was conducted two hours after the daily intranasal SKIP (SEQ ID NO:6). During the first phase (Phase 1, habituation phase), the open field apparatus (arena of 50×50 cm) contained two identical objects (samples) and a mouse was placed in the apparatus facing the wall and allowed to freely explore the objects. At the end of the 5-min session of Phase 1, the mouse was put back into its home cage for 3 hours. […] The time spent sniffing/touching each object was measured. The data was analyzed using the following formula: D1=b−a, when ‘a’ designated the time of exploration of the familiar object and ‘b’ designated the time of exploration of the novel object. […]

[3] = system: ADNP+/− mice; experiment: Morris water maze in ADNP-deficient mice; format: in vivo, mouse; conditions: intranasal, twice a day, 1 month, ADNP+/− male mice
Source text: as §1
SKIP (SEQ ID NO:6) treatment included daily intranasal administrations over a 1 month period to 5-month-old male mice (2 μg/5 μl/mouse/day). […]
The apparatus was a pool with a diameter of 140 cm, filled with opaque water (23-24° C.). […] The time taken for an animal to reach the platform (latency) was recorded. The daily improvement (in seconds to reach the hidden platform) for each animal (in comparison to the starting day) was calculated. […] The platform was removed from the maze and the distance traveled and the time spent by the mice in the pool's quarter where the platform used to be, were recorded (for a maximal period of 90 s). Mouse behavior in the quarter that is most distant from the target quarter was also measured. All measurements were recorded as the percentage of the total time spent or total path traveled in the pool. To determine the general mobility of the mice in the pool, the swimming behavior of each animal was monitored and the total path length and swim velocity were calculated. […]

[4] = system: ADNP+/− mice; experiment: Elevated plus-maze in ADNP-deficient mice; format: in vivo, mouse; conditions: intranasal treatment, ADNP+/− male mice, 5 min
Source text: as §1
as §2, with “Nasal SKIP (SEQ ID NO:6) application was performed daily, twice a day, for 1 month (5 days a week). After 1 month, SKIP (SEQ ID NO:6) was applied 2 h before the behavioral tests (described below).” left out
The maze consisted of two open arms (50 cm×10 cm) and two closed arms 50 cm×10 cm×40 cm), with arms of each type opposite to each other. […] The data were analyzed using the following formula: D2=(b−a)/(b+a), when ‘a’ designated the time spent in the open arm and ‘b’ designated the time spent in the closed arm.

SKIP (not fully specified (N-terminus, C-terminus)) [SKIP (SEQ ID NO:6), 4-amino acid peptide Ser-Lys-Ile-Pro]
protection against Zn intoxication (MTS viability vs Zn alone) ([1]; peptide 10^−9M): showed protection | protection against Zn intoxication (MTS viability vs Zn alone) ([1]; peptide 10^−15M): showed protection | object recognition, Phase 2 short retention (discrimination index D1) [2]: improved short and long term memory | object recognition, Phase 3 long retention, 24 hours (discrimination index D1) [2]: improvement in long term memory for the ADNP-deficient mice, bringing them to the control levels; also recorded: improved short and long term memory | water maze first daily test (reference memory), latency to hidden platform [3]: improved learning on the 2nd day; also recorded: improved the memory | water maze second daily test, 5th day, latency to hidden platform [3]: improvement in the behavior of the ADNP-deficient mice, bringing them to the control levels | risky behavior, time spent in open vs closed arms [4]: reduction in the risky behavior; also recorded: improvement in the risky behavior
